# Test results taken from a melting point compilation (Tetko et al.; mined from patent text by program, amines drawn as free bases though some values may be those of a salt).
row,SMILES,melting point [°C]
1,Cc1nc2cc(C(c3cccc(Cl)c3)n3ccnc3)ccc2[nH]1 (stereo not given),117
2,Cc1ccc(Cn2ncnc2C(NS(=O)(=O)c2ccc(Cl)s2)C(C)C)cc1 (stereo not given),124 to 125
3,C#CCOc1cc(-c2nn(C)c(S(C)(=O)=O)c2C)c(F)cc1Cl,123 to 124
4,CS(=O)(=O)c1ccc(S(=O)(=O)N2CCCC(c3ccc(Cl)c(Cl)c3)=N2)cc1,181 to 183
5,CC(C)(CCCCCCCCCCC(C)(C)CCC(=O)O)CCC(=O)O,71 to 72
6,CC(C)(C)c1cc(Br)c(O)c(C=NO)c1,167 to 169
7,CSC(=NNCCCCc1ncc(Br)cc1C)NC#N,127 to 128
8,COc1c2c(c(OC)c(OC)c1OC)CC(CCCCCCCCN1C(=O)c3ccccc3C1=O)C2,64 to 65
9,Cc1cccc(C(=O)NCC2CC2)c1NC(=O)c1cc(C(F)(F)F)nn1-c1ncccc1Cl,199
10,COc1ccccc1-n1c(-c2cc(-c3ccc(S(C)(=O)=O)cc3)c(N3CCOCC3)s2)nc2ccccc2c1=O,222 to 223
11,CCc1nc2c(cnn2CC)c(NC2CCOCC2)c1CNC(=O)c1cc(C)cc(C(=O)NCc2ccc(C)c(Br)c2)c1,117 to 119
12,CC(=O)OCc1cncc(COc2cc3c(=O)c(Cc4cccnc4)cn4c5ccc(Br)cc5c(c2)c34)c1,83.5 to 84.5
13,COc1cc(-c2cccs2)c(OC)c2c(OC)cc(-c3cccs3)c(OC)c12,234 to 237
14,N#Cc1c(-c2ccc(Cl)cc2)[nH]c(SC(F)(F)F)c1Br,241 to 243
15,O=c1ccn(C2CC(O)C(CNC(c3ccccc3)(c3ccccc3)c3ccccc3)O2)c(=O)[nH]1 (stereo not given),132 to 134
16,COc1cc(Nc2nccc(-c3ccc(NCC(C)(C)CN(C)C)nc3)n2)cc(OC)c1OC,125
17,C[C@@H](CO)Oc1cc(Oc2ccc(C(=O)N3CCC3)cc2F)cc(C(=O)Nc2ccn(C)n2)c1,142
18,N#Cc1cc(F)c(-n2nc(C(F)(F)F)n(N)c2=O)cc1F,141
19,CCCC=Cc1c(C(C)C)nc(C(C)C)c(CO)c1-c1cccc(OC)c1,71 to 75
20,N#Cc1[nH]c(-c2c(Cl)cc(C(F)(F)F)cc2Cl)nc1Br,270 to 272
21,CCOc1ccc(F)cc1NC(=O)Nc1ccc(N2CCN(C(=O)OC(C)(C)C)CC2)cc1,168 to 169
22,CC(C)(C)c1ccc2[nH]c(=O)c(-c3nnn[nH]3)cc2c1,280 to 286
23,O=C(O)C1=Cc2cc(Cl)cc(Cl)c2OC1C(F)(F)F (stereo not given),166 to 168
24,O=C1c2ccc(Cl)cc2C(=O)N1CCN1CCC(c2noc3cc(F)ccc23)CC1,170 to 171

row,SMILES,melting point [°C]
1,COc1cc(-c2ncn(CCO)c2-c2ccc(C(F)(F)F)cc2)cc(OC)c1OC,208 to 210
2,COc1ccc(NC(=O)c2ccc(OC)c(C34CC5CC(CC(C5)C3)C4)c2)c(N)c1,211 to 213
3,COC(=O)[C@H](CCSC)NC(=O)c1ccc(/C=C(/Cn2ccnc2)c2ccc(F)cc2)cc1,54 to 57
4,CNC(=O)n1nc(Oc2ncc(C(F)(F)F)cc2Cl)cc1C,85 to 86
5,Cc1ccc(CC(O)(P(=O)(O)O)P(=O)(O)O)cc1,211 to 213
6,NCc1nc(-c2ncn3c2[C@@H]2CCN2C(=O)c2c(Cl)cccc2-3)no1,212 to 214
7,c1ncn2nncc2n1,249 to 251
8,Cc1cc(Cl)c(C(=O)OC(C)c2nc3c(c(=O)n(C)c(=O)n3C)n2C)c(C)n1 (stereo not given),168 to 170
9,O=C(O)COc1cccc2c(CCS(=O)(=O)C(c3ccccc3)c3ccccc3)coc12,177 to 179
10,O=C1C(c2ccccc2)=C(c2ccccc2)C(=O)N1Cc1ccccc1,123 to 124
11,NC(=S)c1c(F)c(F)c(F)c(F)c1F,92 to 93
12,CCCOc1ccc(S(=O)(=O)N2CCN(CCOC(=O)CCC)CC2)cc1-c1nc2c(CCC)cn(CC)c2c(=O)[nH]1,71.5 to 73
13,O=C1CN(c2ccc(Cl)cc2)C(=S)N1c1ccc(Cc2ccccc2)cc1,153
14,CS(=O)(=O)c1ccc(C(CC2CCCC2)c2nc(F)c(C(=O)C3CC3)[nH]2)cc1 (stereo not given),160 to 162
15,CCn1c2ccccc2c2cc(Nc3nccc(-c4ccc(N5CCNCC5)nc4)n3)ccc21,131 to 137
16,O=C(/C=C/c1ccc(C(=O)O)s1)NOC1CCCCO1 (stereo not given),177
17,O=C1NCCN1C1CCCc2ccccc21 (stereo not given),134 to 140
18,FC(F)(F)c1ccc(/C=C/c2cc(Cl)cc(Cl)c2)cc1,98 to 100
19,COc1cc2c(c(Cl)c1Cl)C(=O)C(C)(c1ccc([N+](=O)[O-])cc1)C2 (stereo not given),179 to 180
20,CN1CCN(c2nc3ccc(Br)c4c3n2CCC4)CC1,132 to 133
21,COc1c(N2CCCC2)c(F)cc2c(=O)c(C(=O)O)cn(C3CC3)c12,257 to 258
22,O=C(O)C1=CN(C2CC2)C(c2ccc3c(c2)OCO3)CC1=O (stereo not given),122 to 124
23,CN(C1=NCCO1)c1ccc(C(O)(C(F)(F)F)C(F)(F)F)cc1,188 to 190
24,COC(=O)c1ccc(C(C(N)=O)C(C)c2cc(Cl)ccc2N2CCCC(C)C2)cc1 (stereo not given),160 to 162

# The next lines start with the values.
row,melting point [°C],SMILES
1,115 to 117,CCC1(C)OC(c2ccc(S(C)(=O)=O)cc2)=C(c2ccccc2)C1=O (stereo not given)
2,153 to 158,COc1cccc(CC(CS)C(=O)Nc2c[nH]c(C(=O)O)c2)c1 (stereo not given)
3,163 to 165,COC(=O)C1Oc2ccccc2Cc2cccc(O)c2O1 (stereo not given)
4,73 to 77,O=C(Nc1ccccn1)C(CC1CCCC1)c1ccc(-c2cccc3ccccc23)cc1 (stereo not given)
5,111 to 114,COc1nc2ccccc2c2c1ncn2CC(C)C
6,251 to 252,COC(=O)NN=Cc1nc(-c2cccc(C(F)(F)F)c2)[nH]c1C
7,178 to 180,CCc1noc(C)c1-c1[nH]c2ccccc2c1C(O)CN(C)C (stereo not given)
8,167 to 169,O=c1c2c(oc3cc(OCCN4CCOCC4)ccc13)C(=Cc1ccccc1)CC2
9,178 to 180,CCCC(NS(=O)(=O)c1ccc(C)cc1)P(=O)(Oc1ccccc1)Oc1ccccc1 (stereo not given)
10,300,COc1c(C)c(C(=O)c2ccc3[nH]c(=O)n(O)c(=O)c3c2)n2ccccc12
11,159,CCc1nc2c(o1)C(=O)C(Cl)=C(Nc1ccccc1)C2=O
12,144 to 146,OC(CN1CCC(O)(Cc2ccccc2)CC1)c1ccc(F)cc1 (stereo not given)
13,231 to 233,Nc1ncc(Cc2ccc3ccccc3c2)c(N)n1
14,213 to 214,COc1ccc(CNc2nnc(Cl)c3ccc(C#N)cc23)cc1Cl
15,75.4 to 75.9,CCOC(=O)/C=C/c1ccc(OCCOC2CC2)cc1Oc1ncc(C(F)(F)F)cc1Cl
16,119 to 121,COC(=O)c1ccc2c(c1)C=CC(=C(Cl)Cl)CO2
17,264,CCOC(=O)c1nc2ccc([N+](=O)[O-])cc2c(O)c1C(=O)OCC
18,260,NC(=O)c1ccc2cc(Nc3ccc(O)cc3)ccc2c1
19,207,Cc1cccc(NC(=O)CN2C(=O)c3ccccc3C2=O)c1
20,188 to 190,c1ccc2c(c1)CSc1nncn1-2
21,186 to 188,CCOC(=O)CNc1nc2cccccc-2c1C#N
22,189 to 190,N#Cc1cc(C(=O)Nc2cncnc2Cl)ccc1Cl
23,197 to 204,COc1ccc2c(c1)cc(C(=O)O)n2-c1ccccc1
24,176 to 178,C=CCOc1cc(CC(C#N)=CNc2ccccc2)cc(OCC=C)c1NC(C)=O
25,103 to 104,CC1Nc2ccc(-c3csc(C#N)c3)cc2C2(CCCC2)O1 (stereo not given)
26,56 to 58,Oc1ccc2c(c1)CC(CCc1ccccc1)O2 (stereo not given)

row,melting point [°C],SMILES
1,38 to 40,C=CCOC(=O)c1c(C)nc2c(cnn2CCOCC)c1N
2,133 to 135,CCCCCCCOc1ccc(-c2ncc(C#N)c(Cl)n2)cc1
3,177 to 178,COC(=O)C1=C(C)NC(CO)=C(C(=O)OC)C1c1ccccc1C#N (stereo not given)
4,188 to 189,CS(=O)(=O)c1ccc(-n2cncc2-c2ccccc2F)cc1
5,140 to 141,CNC(=O)[C@H]1S[C@@H](n2cnc3c(NCc4cccc(I)c4)nc(Cl)nc32)[C@H](O)[C@@H]1O
6,184 to 185,COc1ccccc1NC1c2cc(NC(=O)CC(C)(C)C)c(C)c(C)c2OC1(C)C (stereo not given)
7,127 to 129,Cc1nc(-c2nn(Cc3ccccc3)c3ccccc23)oc1CO
8,248,CCOC(=O)C1Cc2c([nH]c3cccc(C#N)c23)CN1 (stereo not given)
9,168,CC(C)(C)c1ccc(S(=O)(=O)n2c(CCCC(=O)O)cc3nc(Cl)ccc32)cc1
10,> 300,CCOC(=O)c1ccc(NC(=O)Nc2nnc(-c3cc(Cl)cc(Cl)c3O)s2)cc1
11,> 300,Cc1ccc(-n2cnc3nncc-3c2N)cc1
12,108 to 110,Cc1noc(NS(=O)(=O)c2cc(-c3ccccc3)cs2)c1Br
13,134 to 135,COc1ccc(NC(=O)Cc2ccc(Cl)cc2)c(OC)c1
14,167 to 169,COc1ccc(F)c(C(N)=O)c1F
15,> 270,COc1cc(O)ccc1C1=NC2=CCC(=O)NC2=N1
16,194 to 199,CCCC(=O)Nc1ccc(N2CCC(NC[C@H](O)COc3cccc4[nH]c5ccccc5c34)CC2)cc1
17,178 to 179,CN1C(=O)C(N)C(c2ccccc2)=Nc2ccccc21 (stereo not given)
18,69 to 71,CC(=O)c1ccc(OCCCCCCCc2cc(C)no2)cc1
19,259,COc1ccc(-c2nc(N)ncc2-c2ccc(=O)n(C)n2)cc1
20,175,CCCS(=O)c1cccc(-c2nc(=O)c3ccccc3s2)n1 (stereo not given)
21,> 300,O=C(O)c1cnc2c3cccc([N+](=O)[O-])c3ccn2c1=O
22,126 to 127,O=S1c2ccccc2C(CCCl)(CCCl)c2ccccc21
23,230 to 231,CCc1c(NC(=O)c2ccc(Br)cc2)ccc2cc(CN3CCCC3)cnc12
24,52 to 53,CCOC(=O)C(Cc1ccc(F)cc1)C(=O)c1ccc(C(F)(F)F)cc1 (stereo not given)
25,185 to 188,O=C(C=Cc1ccc2ccccc2c1)c1cnc2sc3c(n12)CCCCC3
26,185 to 187,COc1cc(C(=O)O)c2oc(-c3ccccc3)cc2c1
